Data reported in ChEMBL document CHEMBL1201862, “PubChem BioAssay data set” (2004).
Activity calls are given as the source filed them.

Experiments:
[1] = molecular target: T1, Alkaline phosphatase, tissue-nonspecific isozyme (Homo sapiens, UniProt P05186); test: TNAP enzyme activators, dose response, selectivity assay for mouse IAP activator project, biochemical, TNAP isozyme, mouse IAP uHTS hits (AID 488880); format: functional
T1 sequence (P05186 whole entry): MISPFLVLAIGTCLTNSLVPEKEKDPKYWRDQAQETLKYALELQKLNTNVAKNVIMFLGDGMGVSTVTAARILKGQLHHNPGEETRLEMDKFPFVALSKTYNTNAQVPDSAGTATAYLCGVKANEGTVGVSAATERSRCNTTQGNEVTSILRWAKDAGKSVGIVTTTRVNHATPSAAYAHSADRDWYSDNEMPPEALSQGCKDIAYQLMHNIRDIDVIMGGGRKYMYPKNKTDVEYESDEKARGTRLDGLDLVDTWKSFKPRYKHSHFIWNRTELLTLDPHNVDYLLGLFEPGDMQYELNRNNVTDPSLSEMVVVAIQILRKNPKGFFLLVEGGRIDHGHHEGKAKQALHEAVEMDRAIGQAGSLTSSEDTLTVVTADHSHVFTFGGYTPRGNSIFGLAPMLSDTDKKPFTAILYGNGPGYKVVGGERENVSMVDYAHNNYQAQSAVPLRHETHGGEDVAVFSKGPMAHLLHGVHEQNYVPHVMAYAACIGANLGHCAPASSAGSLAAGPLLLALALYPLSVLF

[2] = molecular target: Alkaline phosphatase, placental type (Homo sapiens, UniProt P05187); test: PLAP enzyme inhibitors, confirmation, biochemical, luminescence (AID 1512); format: functional
[3] = molecular target: Intestinal-type alkaline phosphatase (Homo sapiens, UniProt P09923); test: activation of human intestinal alkaline phosphatase – biochemical, dose response (AID 488873); format: functional
[4] = molecular target: T2, Bcl-2-like protein 10 (Homo sapiens, UniProt Q9HD36); test: displacers of TR3 peptide from Bcl-B, primary screen, selectivity assay for Bfl-1 inhibitor project, biochemical, fluorescence polarization, FITC-TR3 peptide (AID 748);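 note: fluorescence polarization from a fluorescein-labelled TR3 peptide binding purified Bcl-B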
T2 sequence (Q9HD36 whole entry): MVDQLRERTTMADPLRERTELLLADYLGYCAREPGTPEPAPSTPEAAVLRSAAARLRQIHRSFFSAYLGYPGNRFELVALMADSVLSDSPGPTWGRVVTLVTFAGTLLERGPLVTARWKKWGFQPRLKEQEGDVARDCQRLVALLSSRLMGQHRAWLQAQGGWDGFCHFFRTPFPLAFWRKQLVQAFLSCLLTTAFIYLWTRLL

[5] = NIH-3T3 fibroblast cytotoxicity, dose response, cytotoxicity control, cell-based, fluorescence, Alamar Blue, secondary assay (AID 2327); format: functional;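 note: NIH-3T3 mouse fibroblasts cultured with fluconazole at 8 µg/mL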
[6] = molecular target: T3, Aminopeptidase N (Plasmodium falciparum FcB1/Columbia, UniProt O96935); test: P. falciparum M1AAP inhibitors, biochemical, fluorogenic H-Leu-NHMec substrate, 1536-well (AID 1445); design: species or system Plasmodium falciparum 3D7, 3D7
T3 sequence (O96935 whole entry): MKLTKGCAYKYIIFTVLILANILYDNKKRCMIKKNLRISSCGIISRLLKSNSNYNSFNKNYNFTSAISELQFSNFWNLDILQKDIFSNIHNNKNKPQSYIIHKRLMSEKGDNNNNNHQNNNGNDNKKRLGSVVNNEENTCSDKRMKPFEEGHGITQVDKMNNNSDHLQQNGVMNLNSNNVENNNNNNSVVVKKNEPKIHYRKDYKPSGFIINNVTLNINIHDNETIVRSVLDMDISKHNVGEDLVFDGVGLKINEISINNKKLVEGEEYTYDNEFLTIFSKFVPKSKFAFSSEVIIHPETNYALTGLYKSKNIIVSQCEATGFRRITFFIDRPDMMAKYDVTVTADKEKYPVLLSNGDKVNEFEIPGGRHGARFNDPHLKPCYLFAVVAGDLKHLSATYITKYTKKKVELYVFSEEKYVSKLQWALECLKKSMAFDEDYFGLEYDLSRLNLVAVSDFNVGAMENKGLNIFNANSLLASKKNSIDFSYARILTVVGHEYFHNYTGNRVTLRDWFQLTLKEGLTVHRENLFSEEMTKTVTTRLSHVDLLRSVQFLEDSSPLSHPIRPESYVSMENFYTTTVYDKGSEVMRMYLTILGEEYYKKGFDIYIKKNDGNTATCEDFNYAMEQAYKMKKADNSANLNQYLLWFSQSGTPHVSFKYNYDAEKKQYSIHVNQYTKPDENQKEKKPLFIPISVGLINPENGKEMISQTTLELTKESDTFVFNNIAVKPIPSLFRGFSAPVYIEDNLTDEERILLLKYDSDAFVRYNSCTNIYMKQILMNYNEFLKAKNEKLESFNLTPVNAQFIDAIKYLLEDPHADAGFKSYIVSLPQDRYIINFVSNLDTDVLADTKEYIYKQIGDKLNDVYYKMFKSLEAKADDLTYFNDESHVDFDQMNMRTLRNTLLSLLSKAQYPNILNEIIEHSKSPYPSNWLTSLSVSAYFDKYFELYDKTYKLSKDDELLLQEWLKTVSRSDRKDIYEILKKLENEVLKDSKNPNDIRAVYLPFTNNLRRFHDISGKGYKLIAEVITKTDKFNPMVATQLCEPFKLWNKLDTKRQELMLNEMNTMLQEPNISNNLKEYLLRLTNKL

[7] = molecular target: T1, Alkaline phosphatase, tissue-nonspecific isozyme; test: human TNAP enzyme inhibitors, SAR follow-up, biochemical, luminescent, dose response (AID 1056)
[8] = C. albicans growth with fluconazole, confirmation, fluorescence, retest (AID 2467); format: functional, cell-based
[9] = molecular target: Intestinal-type alkaline phosphatase (Mus musculus, UniProt P24822); test: mouse intestinal alkaline phosphatase activators, dose response, biochemical, luminescence, uHTS hits (AID 488783); format: functional
[10] = molecular target: T4, Rac GTPase-activating protein 1 (Homo sapiens, UniProt Q9H0H5); test: MgcRacGAP GTPase-activating activity inhibitors, confirmation, biochemical, ADP Hunter fluorescence, primary and confirmatory (AID 624330); format: functional
T4 sequence (Q9H0H5 whole entry): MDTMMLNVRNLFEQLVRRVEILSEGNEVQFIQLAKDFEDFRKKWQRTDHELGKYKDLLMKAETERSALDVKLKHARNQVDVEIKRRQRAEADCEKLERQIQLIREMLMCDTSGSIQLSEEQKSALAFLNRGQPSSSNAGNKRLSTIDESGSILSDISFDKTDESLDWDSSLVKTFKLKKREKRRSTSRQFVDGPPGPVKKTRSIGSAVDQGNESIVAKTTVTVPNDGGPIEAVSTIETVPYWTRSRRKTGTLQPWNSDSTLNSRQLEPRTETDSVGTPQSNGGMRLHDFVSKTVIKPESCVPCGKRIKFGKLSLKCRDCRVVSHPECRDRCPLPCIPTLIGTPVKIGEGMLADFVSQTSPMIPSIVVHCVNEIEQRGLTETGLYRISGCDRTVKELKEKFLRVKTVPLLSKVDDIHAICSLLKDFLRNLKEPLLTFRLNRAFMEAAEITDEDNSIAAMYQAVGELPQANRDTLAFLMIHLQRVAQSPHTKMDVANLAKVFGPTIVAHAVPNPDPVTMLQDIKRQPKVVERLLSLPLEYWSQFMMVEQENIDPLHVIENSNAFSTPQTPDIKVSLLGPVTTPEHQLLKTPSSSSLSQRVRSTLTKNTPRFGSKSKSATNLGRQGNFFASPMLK

[11] = growth suppression of PTEN-null colon cells, dose response, cell-based, HCT116 PTEN knockout (AID 1047); format: functional;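 note: HCT116 colon tumor cells with PTEN knocked out; cells exposed to compound for 60 hours before readout; potency for loss of cell viability measured by luminescence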
[12] = test system: Streptococcus; test: Group A Streptococcus viability loss, dose response, counter-screen for streptokinase expression inhibitor project, luminescence, BacTiterGlo (AID 1915); format: functional, organism-based;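 note: potency for reduction of bacterial viability or growth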
[13] = molecular target: Sphingosine 1-phosphate receptor 1 (Homo sapiens, UniProt P21453); test: Fluorescence-based counterscreen assay for S1P4 agonists: Cell-based dose response high throughput screening assay to identify agonists of the Sphingosine 1-Phosphate Receptor 1 (S1P1). [Related pubchem assays (depositor defined):AID1509, AID1523, AID1801, AID463107, AID463118, AID463119, AID463122, AID463123, AID463129, AID463225, AID504400, AID504460]; format: functional
[14] = molecular target: T5, Protein Tat (Human immunodeficiency virus type 1 group M subtype B (isolate HXB2)(HIV-1), UniProt P04608); format: functional;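 note: tat binding to TAR RNA read out by fluorescence polarization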
T5 sequence (P04608 whole entry): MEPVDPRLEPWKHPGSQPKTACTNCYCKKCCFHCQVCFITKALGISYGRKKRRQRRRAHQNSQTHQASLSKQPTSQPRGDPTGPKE

[15] = growth suppression of beta-catenin-knockout colon cells, dose response, cell-based, HCT116, human colon tumor (AID 1045); format: functional;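 note: HCT116 colon tumor cells with beta catenin knocked out; cells exposed to compound for 60 hours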
[16] = molecular target: Neurotensin receptor type 1 (Homo sapiens, UniProt P30989); format: functional;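 note: Image-based confirmatory dose-response assay measuring agonist activity at NTR1; NTR1-expressing U2OS osteosarcoma cells imaged for beta-arrestin GFP spot formation; agonist potency where compounds increase beta-arrestin recruitment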
[17] = Vero cell cytotoxicity, dose response, cytotoxicity control for Vif-APOBEC3G degradation inhibitor project, Vero cells (AID 1117358); format: functional; settings: Human immunodeficiency virus 1, Vero
[18] = test system: Vero; test: cells; format: functional; settings: Chlorocebus sabaeus
[19] = molecular target: Sphingosine 1-phosphate receptor 2 (Homo sapiens, UniProt O95136); test: Dose Response Cell Based Assay for Agonists of the S1P2 Receptor. [Related pubchem assays: 729, 736, 843 ]; format: functional
[20] = molecular target: T6, Sphingosine 1-phosphate receptor 4 (Homo sapiens, UniProt O95977); test: Fluorescence dose response cell-based high throughput screening assay for agonists of the Sphingosine 1-Phosphate Receptor 4 (S1P4). [Related pubchem assays: 1509 (Primary screen.), 1523 (Confirmation screen in triplicates.)]; format: functional
T6 sequence (O95977 whole entry): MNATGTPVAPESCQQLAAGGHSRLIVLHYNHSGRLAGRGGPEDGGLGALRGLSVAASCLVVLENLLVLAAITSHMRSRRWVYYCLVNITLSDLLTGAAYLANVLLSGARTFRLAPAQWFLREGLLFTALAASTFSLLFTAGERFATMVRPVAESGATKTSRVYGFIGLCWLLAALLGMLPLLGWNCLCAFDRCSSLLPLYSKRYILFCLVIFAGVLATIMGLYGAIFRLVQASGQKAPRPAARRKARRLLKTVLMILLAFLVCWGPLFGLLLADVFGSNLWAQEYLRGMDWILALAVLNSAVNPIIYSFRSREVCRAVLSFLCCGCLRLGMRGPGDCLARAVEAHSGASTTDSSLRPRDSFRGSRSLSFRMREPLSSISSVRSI

[21] = test system: Streptococcus sp. 'group A'; test: growth inhibition of control SK(-) GAS strain, dose response, counter-screen for streptokinase expression inhibitor project, luminescence, kanamycin, BacTiterGlo, confirmation (AID 1900); format: functional, organism-based
[22] = molecular target: T7, Streptokinase A (Streptococcus pyogenes serotype M1, UniProt P10520); test: S. pyogenes streptokinase expression inhibitors, potency, dose response, plasminogen activation absorbance, OD405 (AID 1914); format: functional, Streptococcus pyogenes M1 GAS;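 note: secreted streptokinase activity via plasminogen activation per viability signal from cell pellet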
T7 sequence (P10520 whole entry): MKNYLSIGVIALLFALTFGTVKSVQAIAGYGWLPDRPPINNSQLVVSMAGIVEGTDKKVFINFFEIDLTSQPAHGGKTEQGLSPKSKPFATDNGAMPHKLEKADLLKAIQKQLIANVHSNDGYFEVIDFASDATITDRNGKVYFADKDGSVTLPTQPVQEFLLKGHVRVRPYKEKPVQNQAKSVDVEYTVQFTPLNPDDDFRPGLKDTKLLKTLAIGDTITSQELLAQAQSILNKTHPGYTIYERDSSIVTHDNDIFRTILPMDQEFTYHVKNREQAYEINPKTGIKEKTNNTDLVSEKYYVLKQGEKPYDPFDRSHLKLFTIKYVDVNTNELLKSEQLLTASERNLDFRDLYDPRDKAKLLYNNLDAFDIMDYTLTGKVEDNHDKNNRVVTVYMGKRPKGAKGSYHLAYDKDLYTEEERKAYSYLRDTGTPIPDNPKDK

Sequence of Intestinal-type alkaline phosphatase (Homo sapiens, UniProt P09923) (P09923 whole entry): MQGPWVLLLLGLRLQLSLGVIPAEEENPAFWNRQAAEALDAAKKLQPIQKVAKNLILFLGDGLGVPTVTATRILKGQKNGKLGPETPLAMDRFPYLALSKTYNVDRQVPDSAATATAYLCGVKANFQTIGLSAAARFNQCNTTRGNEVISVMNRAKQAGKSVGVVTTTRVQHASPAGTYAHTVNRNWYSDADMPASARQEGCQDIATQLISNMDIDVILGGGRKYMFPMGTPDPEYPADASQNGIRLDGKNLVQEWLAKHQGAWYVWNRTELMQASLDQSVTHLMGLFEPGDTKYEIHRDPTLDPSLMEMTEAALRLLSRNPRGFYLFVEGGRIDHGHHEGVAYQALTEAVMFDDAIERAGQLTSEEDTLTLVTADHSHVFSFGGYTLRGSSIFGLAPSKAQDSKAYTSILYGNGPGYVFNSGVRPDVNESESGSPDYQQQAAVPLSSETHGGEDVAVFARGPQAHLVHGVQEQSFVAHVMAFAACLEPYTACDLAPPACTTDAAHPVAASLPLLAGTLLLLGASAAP
Sequence of Alkaline phosphatase, placental type (P05187 whole entry): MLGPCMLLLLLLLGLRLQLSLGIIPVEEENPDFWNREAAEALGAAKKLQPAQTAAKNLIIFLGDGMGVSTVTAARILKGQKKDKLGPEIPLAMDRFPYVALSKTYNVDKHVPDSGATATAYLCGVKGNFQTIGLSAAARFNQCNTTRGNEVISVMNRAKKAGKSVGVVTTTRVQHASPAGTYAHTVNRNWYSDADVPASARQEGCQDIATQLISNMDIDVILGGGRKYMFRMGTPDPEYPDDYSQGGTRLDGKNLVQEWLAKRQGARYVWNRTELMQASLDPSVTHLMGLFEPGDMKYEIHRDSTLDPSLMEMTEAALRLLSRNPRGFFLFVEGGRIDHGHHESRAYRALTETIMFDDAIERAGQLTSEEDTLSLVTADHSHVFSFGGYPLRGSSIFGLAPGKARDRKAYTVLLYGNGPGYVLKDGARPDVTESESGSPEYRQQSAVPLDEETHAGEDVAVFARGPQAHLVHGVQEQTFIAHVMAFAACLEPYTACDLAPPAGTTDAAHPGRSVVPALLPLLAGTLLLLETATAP
Sequence of Intestinal-type alkaline phosphatase (Mus musculus, UniProt P24822) (P24822 whole entry): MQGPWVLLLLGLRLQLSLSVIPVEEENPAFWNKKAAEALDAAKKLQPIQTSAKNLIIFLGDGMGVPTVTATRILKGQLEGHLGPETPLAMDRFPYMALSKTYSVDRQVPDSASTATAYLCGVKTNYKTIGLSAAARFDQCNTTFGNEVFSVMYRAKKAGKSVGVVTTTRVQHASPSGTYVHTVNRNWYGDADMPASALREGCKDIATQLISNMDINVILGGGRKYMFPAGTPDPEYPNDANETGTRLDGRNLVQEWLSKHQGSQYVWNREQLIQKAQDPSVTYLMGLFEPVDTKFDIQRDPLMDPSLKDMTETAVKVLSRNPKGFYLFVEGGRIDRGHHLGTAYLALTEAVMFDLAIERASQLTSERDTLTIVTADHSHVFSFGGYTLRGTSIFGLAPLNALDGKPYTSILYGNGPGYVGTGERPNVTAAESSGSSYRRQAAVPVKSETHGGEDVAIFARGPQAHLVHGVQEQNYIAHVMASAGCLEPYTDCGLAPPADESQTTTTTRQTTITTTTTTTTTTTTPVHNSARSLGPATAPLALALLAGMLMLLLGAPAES
Sequence of Neurotensin receptor type 1 (P30989 whole entry): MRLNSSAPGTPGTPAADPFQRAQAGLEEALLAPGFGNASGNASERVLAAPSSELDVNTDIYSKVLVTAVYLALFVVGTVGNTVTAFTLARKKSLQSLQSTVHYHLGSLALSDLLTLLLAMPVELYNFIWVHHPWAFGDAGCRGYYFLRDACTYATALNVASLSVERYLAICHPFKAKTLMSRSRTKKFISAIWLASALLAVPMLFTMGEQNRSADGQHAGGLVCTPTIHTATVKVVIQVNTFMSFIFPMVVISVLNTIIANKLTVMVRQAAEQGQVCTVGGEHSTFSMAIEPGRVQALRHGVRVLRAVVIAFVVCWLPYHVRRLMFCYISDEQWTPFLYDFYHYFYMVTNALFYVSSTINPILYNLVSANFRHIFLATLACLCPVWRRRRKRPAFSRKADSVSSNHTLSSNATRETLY
Sequence of Sphingosine 1-phosphate receptor 1 (P21453 whole entry): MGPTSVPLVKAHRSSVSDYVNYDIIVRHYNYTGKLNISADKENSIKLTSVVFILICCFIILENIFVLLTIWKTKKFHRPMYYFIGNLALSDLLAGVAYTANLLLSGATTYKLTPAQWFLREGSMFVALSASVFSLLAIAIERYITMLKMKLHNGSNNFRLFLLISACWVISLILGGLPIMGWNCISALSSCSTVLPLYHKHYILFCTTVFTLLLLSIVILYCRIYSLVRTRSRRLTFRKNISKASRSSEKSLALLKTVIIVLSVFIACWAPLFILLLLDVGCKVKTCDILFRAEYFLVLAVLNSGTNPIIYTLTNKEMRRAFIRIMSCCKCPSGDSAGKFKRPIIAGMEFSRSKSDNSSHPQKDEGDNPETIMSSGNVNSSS
Sequence of Sphingosine 1-phosphate receptor 2 (O95136 whole entry): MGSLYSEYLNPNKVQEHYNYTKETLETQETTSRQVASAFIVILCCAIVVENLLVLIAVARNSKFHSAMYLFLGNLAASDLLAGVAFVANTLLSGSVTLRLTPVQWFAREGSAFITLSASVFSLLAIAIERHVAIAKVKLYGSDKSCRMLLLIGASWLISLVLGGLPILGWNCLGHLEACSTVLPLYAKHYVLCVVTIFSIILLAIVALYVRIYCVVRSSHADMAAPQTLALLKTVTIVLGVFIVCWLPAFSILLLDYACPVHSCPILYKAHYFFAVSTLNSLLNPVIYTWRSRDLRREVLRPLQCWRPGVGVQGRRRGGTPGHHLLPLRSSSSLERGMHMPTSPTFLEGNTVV

In the case of CCn1c(CSc2nc3ccccc3s2)nnc1SCC(=O)c1ccc(O)c(O)c1, the EC50 [1] is reported as 64.2 µM (active), the IC50 [2] is reported as 3.87 µM (inactive) and the EC50 [3] is reported as > 100 µM (inactive). The IC50 [4] was > 100 µM (inactive), the EC50 [5] was > 160 µM (inactive) and the IC50 [6] was 68.8 µM (active). For the same molecule, the IC50 [7] was > 100 µM (inactive), the EC50 [8] was > 38 µM (not active) and the EC50 [9] was 1.84 µM (active). For the same molecule, the IC50 [10] was 179 µM (active).

In the case of NS(=O)(=O)c1ccc(N2N=C(c3ccc(Br)cc3)CC2c2ccc(F)cc2)cc1 (configuration not stated), the EC50 [11] is reported as 14.1 µM (active), the EC50 [12] is reported as 5.44 µM (active) and the EC50 [13] is reported as 2.2 µM (active). The IC50 [14] was > 100 µM (active), the EC50 [15] was 15.4 µM (active) and the EC50 [16] was 25 µM (inactive). For the same molecule, the CC50 [17] was > 40 µM (active), the CC50 [18] was 17.1 µM (active) and the EC50 [19] was 0.877 µM (active). For the same molecule, the EC50 [20] was 3.33 µM (active), the EC50 [21] was 2.62 µM (active) and the EC50 [22] was > 150 µM (not active).
